According to patent US20070004634A1 (Novo Nordisk A/S, priority 1998, published 2007):
Residues, ends and D or L forms follow the SMILES beside them.

Assays:
IGF-1R [1] = target: T1, IGF-1R (Homo sapiens, UniProt P08069); assay: TR-FRET dissociation of biotinylated-20E2 from rhIGF-1R; type: binding; settings: peptides 100 μM, IGF-1 30 μM
Procedure: Best fit non-linear regression analysis of the data, was used to determine dissociation rate constants. Each data point represents a single observation. […] Reactions were allowed to reach equilibrium for 6 h at RT.

[2] = tested on: FDC-P2 cells expressing the IL-3 and human IGF-1R receptors; assay: IGF-1 proliferation assay in FDC-P2 cells, antagonist format; settings: for FDC-P2 Antagonist: FDC-P2 cell proliferation, antagonist effect; for antagonist activity at IGF-1R, in words / EC50: FDC-P2 cells; for EC50: read-out: ED50, antagonist activity at IGF-1R, 10 ng/ml IGF-1 test medium
MCF-7 cells [3] = settings: MCF-7 cell proliferation, antagonist effect
MiaPaCa cells [4] = assay: MiaPaCa cell proliferation assay, IGF-1R agonist format; type: cell-based, human; settings: MiaPaCa cell proliferation, agonist effect
MiaPaCa cells [5] = settings: MiaPaCa cell proliferation, antagonist effect
[6] = tested on: FDC-P2 cells expressing the IL-3 and human IGF-1R receptors; assay: IGF-1 proliferation assay in FDC-P2 cells, agonist format; settings: for agonist activity at IGF-1R, in words / EC50: FDC-P2 cells
Insulin receptor = target: T2, Insulin receptor (Homo sapiens, UniProt P06213); assay: BIAcore competition, IR binding to immobilized insulin
T2 construct: replacing the transmembrane domain and the intracellular domain of IR with constant domains from immunoglobulin Fc or λ subunits; made in house; host or cells: human embryonic kidney 293 cells (Bass et al.)
T2 sequence (P06213 28-758 limits assumed): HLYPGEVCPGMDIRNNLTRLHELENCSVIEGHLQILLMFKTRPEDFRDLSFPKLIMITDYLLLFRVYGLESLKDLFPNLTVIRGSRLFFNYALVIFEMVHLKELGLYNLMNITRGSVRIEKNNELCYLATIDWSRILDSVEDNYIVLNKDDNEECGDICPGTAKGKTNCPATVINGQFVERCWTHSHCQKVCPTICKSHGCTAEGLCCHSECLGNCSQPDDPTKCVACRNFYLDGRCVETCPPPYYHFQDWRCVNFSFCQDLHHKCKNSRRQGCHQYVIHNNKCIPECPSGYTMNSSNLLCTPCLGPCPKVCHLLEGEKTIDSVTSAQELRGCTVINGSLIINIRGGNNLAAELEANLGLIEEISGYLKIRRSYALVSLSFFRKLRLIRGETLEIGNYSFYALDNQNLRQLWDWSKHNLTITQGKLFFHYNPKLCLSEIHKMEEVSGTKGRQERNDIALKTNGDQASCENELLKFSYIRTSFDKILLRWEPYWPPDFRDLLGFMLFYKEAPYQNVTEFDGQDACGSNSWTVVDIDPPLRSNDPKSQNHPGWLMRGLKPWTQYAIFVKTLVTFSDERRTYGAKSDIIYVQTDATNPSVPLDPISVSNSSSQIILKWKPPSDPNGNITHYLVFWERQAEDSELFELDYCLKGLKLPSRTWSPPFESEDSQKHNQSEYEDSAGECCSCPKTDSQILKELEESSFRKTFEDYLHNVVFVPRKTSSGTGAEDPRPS
T2 sequence (P06213 763-956 limits assumed): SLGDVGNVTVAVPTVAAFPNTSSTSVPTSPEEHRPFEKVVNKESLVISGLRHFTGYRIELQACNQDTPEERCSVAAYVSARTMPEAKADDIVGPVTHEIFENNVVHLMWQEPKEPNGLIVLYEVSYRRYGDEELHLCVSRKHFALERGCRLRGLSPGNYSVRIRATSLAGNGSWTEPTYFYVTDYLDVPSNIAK
Procedure: Flowcell-1 was used for background binding to correct for any non-specific binding. […] The surface was regenerated with 25 mM NaOH.

IGF-1R [7] = target: T1, IGF-1R; assay: Phage competition ELISA on IGF-1R; type: binding; parameters: included the heterotetrameric (alpha 2-beta 2) extracellular domain of IGF-1R; purchased R&D Systems 391-GR/CF; host or cells: mouse myeloma cell line; settings: phage RP9, RP6, D8B12, D815
Procedure: Wells were blocked with 4% non-fat milk in PBS for 60 min at room temperature. One hundred microliters of rescued phage were added to each well. […] The labeled antibody was incubated at room temperature for 60 min. After washing, 100 μl of ABTS was added per well and the plates read in a microtiter reader at […]. […] (Site 2). Peptides included RP9 and […]. Phage competition studies were also performed with Site 2-Site 1 dimer peptides containing 6- or 12-amino acid linkers. […] Wells were blocked with 4% non-fat milk in PBS for 60 min at room temperature. One hundred microliters of rescued phage were added to each well. Peptides in varying concentrations were added and the mixture incubated for 2 h at room temperature. […] The labeled antibody was incubated for 60 min at room temperature. After washing, 100 μl of ABTS was added per well and the plates read in a microtiter reader at […]. […] Linker sequences are underlined and shown below.

[8] = target: T3, soluble human insulin receptor-immunoglobulin heavy chain chimera (sIR-Fc) (Homo sapiens, UniProt P06213); assay: TR-FRET competition with biotinylated S175 (b-S175) for sIR-Fc; type: binding; settings: target sIR-Fc, label b-S175; for Hill, sIR-Fc, b-S175, FRET: Hill slope
T3 construct: replacing the transmembrane domain and the intracellular domain of IR with constant domains from immunoglobulin Fc or λ subunits; made in house; host or cells: human embryonic kidney 293 cells (Bass et al.)
T3 sequence (P06213 28-758 limits assumed, stated change not applied): as the sequence (P06213 28-758 limits assumed) above
T3 sequence (P06213 763-956 limits assumed, stated change not applied): as the sequence (P06213 763-956 limits assumed) above

[9] = target: T3, soluble human insulin receptor-immunoglobulin heavy chain chimera (sIR-Fc); assay: TR-FRET competition with biotinylated RP9 (b-RP9) for sIR-Fc; type: binding; settings: for Hill, sIR-Fc, b-RP9, FRET: Hill slope, target sIR-Fc, label b-RP9, TR-FRET
[10] = tested on: free fat cells (adipocytes); assay: Adipocyte / free fat cell (FFC) assay, 3H glucose incorporation into lipid
IGF-1R [11] = target: T1, IGF-1R; assay: TR-FRET competition with biotinylated-20E2 for rhIGF-1R; settings: TR-FRET (rhIGF-1R, b-20E2) versus FP (sIR-Fc), summary of Table 22
[12] = target: T3, soluble human insulin receptor-immunoglobulin heavy chain chimera (sIR-Fc); assay: Fluorescence polarization, competition with FITC-RP9 for sIR-Fc; type: binding; settings: for Hill, sIR-Fc, FITC-RP9, FP: Hill slope
[13] = target: T4, soluble HIR ectodomain (sIR) (Homo sapiens, UniProt P06213); assay: Fluorescence polarization, competition with FITC-RP9 for sIR; type: binding; settings: Hill slope, target sIR, label FITC-RP9
T4 construct: soluble HIR ectodomain (sIR); Kristensen et al., 1998
T4 sequence (P06213 28-758 limits assumed): as the sequence (P06213 28-758 limits assumed) above
T4 sequence (P06213 763-956 limits assumed): as the sequence (P06213 763-956 limits assumed) above

[14] = target: T5, human insulin receptor (HIR) (Homo sapiens, UniProt P06213); assay: Insulin receptor binding, competition with 125I-labeled insulin (HIR Kd); settings: read-out: IC50 (nM), HIR, 125I-insulin, RRA; target HIR; label 125I-insulin; radio-receptor assay
T5 construct: made in house
T5 sequence (P06213 28-758 limits assumed): as the sequence (P06213 28-758 limits assumed) above
T5 sequence (P06213 763-1382 limits assumed): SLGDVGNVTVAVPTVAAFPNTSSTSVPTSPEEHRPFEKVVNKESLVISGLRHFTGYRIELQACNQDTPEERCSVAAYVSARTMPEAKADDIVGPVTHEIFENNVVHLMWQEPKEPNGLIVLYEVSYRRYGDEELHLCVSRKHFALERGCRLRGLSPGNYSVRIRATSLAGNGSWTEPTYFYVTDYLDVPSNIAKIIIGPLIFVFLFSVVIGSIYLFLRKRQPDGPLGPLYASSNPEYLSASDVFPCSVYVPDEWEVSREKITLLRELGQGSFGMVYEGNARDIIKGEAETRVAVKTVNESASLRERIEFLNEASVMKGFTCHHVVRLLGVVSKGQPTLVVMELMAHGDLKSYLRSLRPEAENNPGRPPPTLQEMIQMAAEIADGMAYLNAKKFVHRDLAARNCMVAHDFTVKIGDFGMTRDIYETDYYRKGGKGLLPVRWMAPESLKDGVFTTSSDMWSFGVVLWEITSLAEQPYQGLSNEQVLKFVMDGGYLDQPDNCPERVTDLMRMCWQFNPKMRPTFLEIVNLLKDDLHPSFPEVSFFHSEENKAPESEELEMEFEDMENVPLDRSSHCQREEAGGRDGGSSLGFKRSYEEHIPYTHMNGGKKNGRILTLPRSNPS

[15] = tested on: soluble human insulin mini-receptor (mIR); assay: Fluorescence polarization, competition with FITC-RP9 for mIR; type: binding
Procedure: The FP assays were performed in a 384-well black microplate with a final volume of 30 μl.

MCF-7 cells [16] = assay: MCF-7 cell proliferation assay, IGF-1R agonist format; type: cell-based, human; settings: MCF-7 cell proliferation, agonist effect
Source text: ; FIGS. 65A-65F), and were used for subsequent experiments.

[17] = FFC assay potency grade, 0, + to ++++++, −
[18] = target sIR-Fc, label FITC-RP9, fluorescence polarization
[19] = free fat cell assay class, Table 9

T1 sequence (P08069 31-736 limits assumed): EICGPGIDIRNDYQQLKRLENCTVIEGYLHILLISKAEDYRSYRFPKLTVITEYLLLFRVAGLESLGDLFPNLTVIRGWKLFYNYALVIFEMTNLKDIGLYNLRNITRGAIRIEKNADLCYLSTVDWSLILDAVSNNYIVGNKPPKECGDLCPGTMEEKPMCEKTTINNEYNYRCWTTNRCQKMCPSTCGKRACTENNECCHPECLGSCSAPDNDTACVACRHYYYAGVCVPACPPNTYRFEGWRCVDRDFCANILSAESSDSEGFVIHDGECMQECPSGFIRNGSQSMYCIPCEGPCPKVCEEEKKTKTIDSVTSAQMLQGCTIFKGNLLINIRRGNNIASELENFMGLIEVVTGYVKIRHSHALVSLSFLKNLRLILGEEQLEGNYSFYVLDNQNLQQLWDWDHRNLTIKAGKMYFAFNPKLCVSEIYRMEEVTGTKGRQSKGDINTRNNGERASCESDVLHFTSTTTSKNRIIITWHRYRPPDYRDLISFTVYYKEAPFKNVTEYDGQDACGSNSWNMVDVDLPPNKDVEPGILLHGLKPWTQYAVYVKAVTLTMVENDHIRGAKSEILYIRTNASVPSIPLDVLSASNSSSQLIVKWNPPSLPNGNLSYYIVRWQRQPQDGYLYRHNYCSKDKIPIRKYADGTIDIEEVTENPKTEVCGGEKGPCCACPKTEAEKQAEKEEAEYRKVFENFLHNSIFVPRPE
T1 sequence (P08069 741-935 limits assumed): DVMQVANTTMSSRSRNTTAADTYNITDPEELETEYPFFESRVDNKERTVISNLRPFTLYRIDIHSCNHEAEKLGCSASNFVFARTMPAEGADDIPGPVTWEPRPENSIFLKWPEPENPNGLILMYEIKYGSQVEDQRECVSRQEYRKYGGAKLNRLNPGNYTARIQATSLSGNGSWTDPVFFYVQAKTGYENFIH

Molecule: CC(C)C[C@H](NC(=O)[C@H](CS)NC(=O)[C@H](CO)NC(=O)[C@H](Cc1ccc(O)cc1)NC(=O)[C@H](Cc1ccccc1)NC(=O)[C@@H](N)[C@@H](C)O)C(=O)N[C@@H](C)C(=O)N[C@@H](CO)C(=O)N[C@@H](CC(C)C)C(=O)N[C@@H](CC(C)C)C(=O)N[C@H](C(=O)NCC(=O)N[C@H](C(=O)N1CCC[C@H]1C(=O)N[C@@H](CCC(N)=O)C(=O)N1CCC[C@H]1C(=O)N[C@@H](CC(N)=O)C(=O)N[C@@H](CCCNC(=N)N)C(=O)NCC(=O)N1CCC[C@H]1C(=O)N[C@@H](Cc1c[nH]c2ccccc12)C(=O)N[C@@H](CCC(=O)O)C(=O)N[C@@H](CCCNC(=N)N)C(=O)N[C@@H](CS)C(=O)N[C@@H](CCCNC(=N)N)C(=O)O)[C@@H](C)O)[C@@H](C)O [RP6] (H-TFYSCLASLLTGTPQPNRGPWERCR-OH; N-terminus and C-terminus assumed)
- effect on the rate of dissociation of b-20E2 from IGF-1R (IGF-1R [1]): dissociation rates of b-20E2 were similar
- FDC-P2 Antagonist [2]: +
- antagonist activity at IGF-1R, in words [2]: acted as an antagonist
- EC50 [2]: ~1000 nM
- MCF-7 Antagonist (MCF-7 cells [3]): +
- MiaPaCa Agonist (MiaPaCa cells [4]): No
- MiaPaCa Antagonist (MiaPaCa cells [5]): No
- agonist activity at IGF-1R, in words [6]: no agonist activity

Molecule: KWLDQEWAWVQCEVYGRGCPSKK [Peptide D8]
- % Binding (Insulin receptor; Table 13, peptide about 40 μM, IR 450 nM, IR alone 100): 33%

Molecule: CC[C@H](C)[C@@H]1NC(=O)[C@H](CCC(=O)O)NC(=O)[C@@H](NC(=O)[C@H](Cc2c[nH]c3ccccc23)NC(=O)[C@H](CC(C)C)NC(=O)[C@H](Cc2c[nH]c3ccccc23)NC(=O)[C@H](C)NC(=O)[C@H](CCCNC(=N)N)NC(=O)[C@H](CCC(=O)O)NC(=O)[C@H](CCC(N)=O)NC(=O)[C@H](CC(=O)O)NC(=O)[C@H](CC(C)C)NC(=O)[C@@H](N)Cc2c[nH]c3ccccc23)CSSC[C@@H](C(=O)N[C@@H](CC(C)C)C(=O)N[C@@H](CO)C(=O)O)NC(=O)CNC(=O)[C@H](CCCNC(=N)N)NC(=O)CNC(=O)[C@H](CO)NC1=O [Peptide D815]
- competition of Site 1 and Site 2 phage on IGF-1R (IGF-1R [7]): competed both Site 1 and Site 2 phage
- antagonist activity at IGF-1R, in words [2]: no antagonist activity
- FDC-P2 Agonist ([6]; FDC-P2 cell proliferation, agonist effect): +
- agonist activity at IGF-1R, in words [6]: IGF-1R agonist activity
- EC50 ([6]; read-out: ED50, agonist activity at IGF-1R): ~2000 nM

Molecule: CC(C)C[C@H](NC(=O)[C@H](CCC(=O)O)NC(=O)[C@H](C)NC(=O)[C@@H](NC(=O)[C@H](Cc1ccccc1)NC(=O)[C@H](Cc1c[nH]c2ccccc12)NC(=O)[C@H](CC(=O)O)NC(=O)[C@H](Cc1ccc(O)cc1)NC(=O)[C@H](Cc1ccccc1)NC(=O)[C@H](CC(N)=O)NC(=O)[C@H](C)NC(=O)[C@H](CC(N)=O)NC(=O)[C@H](CCCNC(=N)N)NC(=O)[C@H](CCC(N)=O)NC(=O)[C@H](CC(C)C)NC(=O)[C@H](Cc1c[nH]c2ccccc12)NC(=O)[C@H](CC(=O)O)NC(=O)[C@@H](NC(=O)[C@H](CCCNC(=N)N)NC(=O)CN)C(C)C)C(C)C)C(=O)NCC(=O)O [Peptide S175]
- Hill, sIR-Fc, b-S175, FRET [8]: −0.58
- Hill, sIR-Fc, b-RP9, FRET [9]: −0.74
- FFC [10, 17]: +++
- binding to IGF-1R compared with IR, in words (IGF-1R [11]): high binding ratios for IGF-1R over IR
- Hill, sIR-Fc, FITC-RP9, FP [12, 18]: −0.56
- Hill, sIR, FITC-RP9, FP [13]: −0.36
- agonist activity at IGF-1R, in words [6]: IGF-1R agonist activity
- EC50 ([6]; read-out: Cellular EC50, stimulation of proliferation): 10000 nM

Molecule: CC(C)C[C@H](NC(=O)[C@H](Cc1c[nH]c2ccccc12)NC(=O)[C@H](CCC(=O)O)NC(=O)[C@H](Cc1ccc(O)cc1)NC(=O)CNC(=O)[C@@H]1CCCN1C(=O)[C@H](Cc1c[nH]c2ccccc12)NC(=O)[C@@H](NC(=O)[C@@H](NC(=O)CNC(=O)CN)[C@@H](C)O)C(C)C)C(=O)N[C@@H](CCCNC(=N)N)C(=O)N[C@@H](CC(N)=O)C(=O)N[C@@H](C)C(=O)O [Peptide E8]
- Hill, sIR-Fc, b-S175, FRET [8]: −0.74
- IC50 [8]: 755 nM
- competition with FITC-RP9 or b-RP9 peptides for binding to sIR-Fc [9]: able to compete
- FFC [10, 19]: −
- IC50 [14]: 2200 nM
- binding to IGF-1R compared with IR, in words (IGF-1R [11]): comparable binding to IGF-1R and IR
- competition with peptide ligands such as FITC-RP9 for binding to mIR [15]: did not compete
- IC50 ([15]; target mIR, label FITC-RP9, fluorescence polarization, read-out: IC50 (nM), mIR, FITC-RP9, FP): > 100000 nM
- Hill, sIR-Fc, FITC-RP9, FP [12, 18]: −0.49
- IC50 ([12]; target sIR-Fc, label FITC-RP9, fluorescence polarization, read-out: IC50 (nM), sIR-Fc, FITC-RP9, FP): 207 nM
- IC50 ([12]; vs. FITC-RP9, read-out: FP sIR-Fc IC50): 206 nM

Molecule: GSLDESFYDWFERQLGKK [Peptide S371]
- Hill, sIR-Fc, b-S175, FRET [8]: −0.45
- Hill, sIR-Fc, b-RP9, FRET [9]: −0.69
- FFC [10, 17]: +
- FFC ([10]; Table 5, free fat cell assay): +
- FFC ([10]; Table 6, free fat cell assay): +
- competition of Site 1 and Site 2 phage on IGF-1R (IGF-1R [7]): competed both Site 1 and Site 2 phage
- FDC-P2 Antagonist [2]: +
- EC50 [2]: ~7000 nM
- binding to IGF-1R compared with IR, in words (IGF-1R [11]): lower binding ratios for IGF-1R over IR
- MCF-7 Agonist (MCF-7 cells [16]): No
- MCF-7 Antagonist (MCF-7 cells [3]): No
- potency / affinity at IR, in words ([12]; FP with FITC-RP9, summary of Table 22): slightly less potent
- Hill, sIR-Fc, FITC-RP9, FP [12, 18]: −0.41
- MiaPaCa Agonist (MiaPaCa cells [4]): No
- Hill, sIR, FITC-RP9, FP [13]: −0.29
- MiaPaCa Antagonist (MiaPaCa cells [5]): No
- agonist activity at IGF-1R, in words [6]: no agonist activity
- Class ([6]; IGF-1R agonist or antagonist): N

Molecule: maltose binding protein [MBP, reference compound]
- Result (RUs) (Insulin receptor; Table 12, IR 450 nM pre-incubated with insulin […], A7 (20A4)-MBP 4.1 μM, D8-MBP […], D10-MBP 3.4 μM, 447-MBP 11.5 μM or MBP 13 μM, IR alone 220 RU): 209 RUs

Molecule: CC(C)C[C@H](NC(=O)[C@H](CCC(N)=O)NC(=O)[C@H](CCCNC(=N)N)NC(=O)[C@H](CCC(=O)O)NC(=O)[C@H](Cc1ccccc1)NC(=O)[C@H](Cc1c[nH]c2ccccc12)NC(=O)[C@H](CC(=O)O)NC(=O)[C@H](Cc1ccc(O)cc1)NC(=O)[C@H](Cc1ccccc1)NC(=O)[C@H](CO)NC(=O)[C@@H](N)CCC(=O)O)C(=O)NCC(=O)O [Peptide S390]
- Hill, sIR-Fc, b-S175, FRET [8]: −0.49
- Hill, sIR-Fc, b-RP9, FRET [9]: −0.49
- activity in the free fat cell (FFC) assay / at IR, in words [10]: potency similar to full-length RP9 monomer peptides
- FFC ([10]; Table 6, free fat cell assay): +
- FFC [10, 19]: +
- FFC ([10]; free fat cell assay potency class, Table 7): +
- Hill, sIR, FITC-RP9, FP [13]: −0.64
